Test results: ChEMBL document CHEMBL2021806, “GnRH-III based multifunctional drug delivery systems containing daunorubicin and methotrexate” (Eur J Med Chem, 2012)
Activity calls are given as the source filed them. The rule behind the calls is not given here.

Tests used:
LNCaP = test: Cytostatic activity against human LNCAP cells after 4 days by MTT assay; type: functional, cell-based; conditions: 96 h
MONO-MAC-6 [1] = test: Antiproliferative activity against human MONO-MAC-6 cells assessed as cell viability at 10^-6 M after 48 hrs by cell counting method relative to untreated control; type: functional
HT-29 = test: Cytostatic activity against human HT-29 cells after 4 days by MTT assay; type: functional, cell-based; conditions: HT-29, 96 h
MONO-MAC-6 [2] = test: Antiproliferative activity against human MONO-MAC-6 cells assessed as inhibition of cell viability at 10^-8 M after 72 hrs by cell counting method; type: functional; conditions: MONO-MAC-6, 72 h, values are per cent of control
MONO-MAC-6 [3] = test: Antiproliferative activity against human MONO-MAC-6 cells assessed as inhibition of cell viability at 10^-8 M after 24 hrs by cell counting method; type: functional; conditions: MONO-MAC-6, 24 h, values are per cent of control
MONO-MAC-6 [4] = test: Antiproliferative activity against human MONO-MAC-6 cells assessed as inhibition of cell viability at 10^-6 M after 72 hrs by cell counting method; type: functional; conditions: MONO-MAC-6, 72 h, values are per cent of control
MONO-MAC-6 [5] = test: Induction of adhesion in human MONO-MAC-6 cells after 24 hrs by electrical impedence method; type: functional, cell-based
MONO-MAC-6 [6] = test: Antiproliferative activity against human MONO-MAC-6 cells assessed as inhibition of cell viability at 10^-7 M after 72 hrs by cell counting method; type: functional; conditions: MONO-MAC-6, 72 h, values are per cent of control
MONO-MAC-6 [7] = test: Antiproliferative activity against human MONO-MAC-6 cells assessed as inhibition of cell viability at 10^-9 M after 72 hrs by cell counting method; type: functional; conditions: MONO-MAC-6, 72 h, values are per cent of control
MONO-MAC-6 [8] = test: Antiproliferative activity against human MONO-MAC-6 cells assessed as inhibition of cell viability at 10^-9 M after 48 hrs by cell counting method; type: functional; conditions: MONO-MAC-6, 48 h, values are per cent of control
MONO-MAC-6 [9] = test: Antiproliferative activity against human MONO-MAC-6 cells assessed as inhibition of cell viability at 10^-8 M after 48 hrs by cell counting method; type: functional; conditions: MONO-MAC-6, 48 h, values are per cent of control
MONO-MAC-6 [10] = test: Antiproliferative activity against human MONO-MAC-6 cells assessed as inhibition of cell viability at 10^-9 M after 24 hrs by cell counting method; type: functional; conditions: MONO-MAC-6, 24 h, values are per cent of control
MONO-MAC-6 [11] = test: Antiproliferative activity against human MONO-MAC-6 cells assessed as inhibition of cell viability at 10^-6 M after 48 hrs by cell counting method; type: functional; conditions: MONO-MAC-6, 48 h, values are per cent of control
MCF7 = test: Cytostatic activity against human MCF7 cells after 4 days by MTT assay; type: functional, cell-based; conditions: MCF7, 96 h
Serum = test: Metabolic stability in human serum at 10 uM after 24 hrs by LC-MS analysis; type: ADME, cell-free
MONO-MAC-6 [12] = test: Antiproliferative activity against human MONO-MAC-6 cells assessed as cell viability at 10^-6 M after 72 hrs by cell counting method relative to untreated control; type: functional
MONO-MAC-6 [13] = test: Antiproliferative activity against human MONO-MAC-6 cells assessed as inhibition of cell viability at 10^-6 M after 24 hrs by cell counting method; type: functional; conditions: MONO-MAC-6, 24 h, values are per cent of control
MONO-MAC-6 [14] = test: Antiproliferative activity against human MONO-MAC-6 cells assessed as cell viability at 10^-6 M after 24 hrs by cell counting method relative to untreated control; type: functional
MONO-MAC-6 [15] = test: Induction of adhesion in human MONO-MAC-6 cells at 10^-9 M after 24 hrs by electrical impedence method relative to control; type: functional
[16] = Drug metabolism in rat lysosomal homogenate assessed as H-Lys(Dau=Aoa)-OH formation at 0.1 ug/ul after 24 hrs by LC-MS analysis; type: ADME, tissue-based, Lysosome; conditions: tissue homogenate
MONO-MAC-6 [17] = test: Antiproliferative activity against human MONO-MAC-6 cells assessed as inhibition of cell viability at 10^-7 M after 24 hrs by cell counting method; type: functional; conditions: MONO-MAC-6, 24 h, values are per cent of control
MONO-MAC-6 [18] = test: Antiproliferative activity against human MONO-MAC-6 cells assessed as inhibition of cell viability at 10^-7 M after 48 hrs by cell counting method; type: functional; conditions: MONO-MAC-6, 48 h, values are per cent of control
MONO-MAC-6 [19] = test: Antiproliferative activity against human MONO-MAC-6 cells assessed as cell viability at 10^-7 to 10^-6 M after 72 hrs by cell counting method relative to untreated control; type: functional
MONO-MAC-6 [20] = test: Antiproliferative activity against human MONO-MAC-6 cells assessed as cell viability at 10^-7 to 10^-6 M after 48 hrs by cell counting method relative to untreated control; type: functional
MONO-MAC-6 [21] = test: Induction of adhesion in human MONO-MAC-6 cells at 10^-9 to 10^-6 M after 24 hrs by electrical impedence method relative to control; type: functional
MONO-MAC-6 [22] = test: Induction of adhesion in human MONO-MAC-6 cells at 10^-11 to 10^-12 M after 24 hrs by electrical impedence method relative to control; type: functional, cell-based

| SMILES | IC50 (LNCaP) [µM] | IC50 (HT-29) [µM] | viability, % of control at 0.01 µM (MONO-MAC-6 [2]) [%] | viability, % of control at 0.01 µM (MONO-MAC-6 [3]) [%] | viability, % of control at 1 µM (MONO-MAC-6 [4]) [%] | viability, % of control at 0.1 µM (MONO-MAC-6 [6]) [%] | viability, % of control at 0.001 µM (MONO-MAC-6 [7]) [%] | viability, % of control at 0.001 µM (MONO-MAC-6 [8]) [%] | viability, % of control at 0.01 µM (MONO-MAC-6 [9]) [%] | viability, % of control at 0.001 µM (MONO-MAC-6 [10]) [%] | viability, % of control at 1 µM (MONO-MAC-6 [11]) [%] | Ratio (MONO-MAC-6 [12]) | viability, % of control at 1 µM (MONO-MAC-6 [13]) [%] | Ratio (MONO-MAC-6 [14]) | viability, % of control at 0.1 µM (MONO-MAC-6 [17]) [%] | viability, % of control at 0.1 µM (MONO-MAC-6 [18]) [%] | other results |
| --- | --- | --- | --- | --- | --- | --- | --- | --- | --- | --- | --- | --- | --- | --- | --- | --- | --- |
| COc1cccc2c1C(=O)c1c(O)c3c(c(O)c1C2=O)C[C@@](O)(/C(C)=N/OCC(=O)NCCCC[C@H](NC(=O)[C@H](Cc1c[nH]c2ccccc12)NC(=O)[C@H](CC(=O)O)NC(=O)[C@H](Cc1cnc[nH]1)NC(=O)[C@H](CCCCNC(=O)[C@H](CCC(=O)O)NC(=O)c1ccc(N(C)Cc2cnc4nc(N)nc(N)c4n2)cc1)NC(=O)[C@H](Cc1c[nH]c2ccccc12)NC(=O)[C@H](Cc1cnc[nH]1)NC(=O)[C@@H]1CCC(=O)N1)C(=O)N1CCC[C@H]1C(=O)NCC(N)=O)C[C@@H]3O[C@H]1C[C@H](N)[C@H](O)[C@H](C)O1 | 28.8 | 3.6 | 103 | 103 | 76 | 104 | 81 | 89 | 92 | 108 | 86 | 0.95 | 88 | 1.06 | 98 | 94 | Ratio (MONO-MAC-6 [1]): 0.98; Activity (MONO-MAC-6 [5]): Dose-dependent effect; IC50 (MCF7): 5.8 µM; Stability (Serum): Stable; Activity (MONO-MAC-6 [15]): 135%; Drug metabolism [16]: Active |
| CN(Cc1cnc2nc(N)nc(N)c2n1)c1ccc(C(=O)N[C@@H](CCC(=O)O)C(=O)O)cc1 [METHOTREXATE] | 0.3 | 1.4 | 60 | 102 | 29 | 27 | 96 | 97 | 94 | 101 | 52 | 0.77 | 80 | 0.95 | 89 | 52 | Ratio (MONO-MAC-6 [19]): 0.76; Ratio (MONO-MAC-6 [20]): 0.98; Activity (MONO-MAC-6 [21]): 140%; Activity (MONO-MAC-6 [22]): Active |
